According to PubChem BioAssay (NCI):
Where “and” joins values, the source holds several entries; their conditions need not be identical. Equal values may be shown once.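 Results reflect a 48-hour exposure of cells in 96-well plates to compound at five concentrations. Abbreviation: GI50, concentration required for 50% inhibition of growth. At the TGI there is no net growth.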

Experiments:
Assay in all cases: inhibition of tumour cell growth, NCI panel, 48 h
HCT-116 colon = test system: HCT-116 colon
A498 renal = test system: A498 renal
HT29 colon = test system: HT29 colon
NCI-H522 lung = test system: NCI-H522 lung
KM12 colon = test system: KM12 colon
RXF 393 renal = test system: RXF 393 renal
SW-620 colon = test system: SW-620 colon
EKVX NSCLC = test system: EKVX NSCLC
TK-10 renal = test system: TK-10 renal
SN12C renal = test system: SN12C renal

## N#C/C(=C/c1cccs1)c1cccs1
HCT-116 colon
  GI50: > 100 µM
  TGI: > 100 µM
A498 renal
  GI50: > 100 µM
  TGI: > 100 µM
HT29 colon
  GI50: > 100 µM
  TGI: > 100 µM
NCI-H522 lung
  GI50: > 100 µM
  TGI: > 100 µM
KM12 colon
  GI50: > 100 µM
  TGI: > 100 µM
RXF 393 renal
  GI50: 38 µM
  TGI: > 100 µM
SW-620 colon
  GI50: > 100 µM
  TGI: > 100 µM
EKVX NSCLC
  GI50: > 100 µM
  TGI: > 100 µM
TK-10 renal
  GI50: > 100 µM
  TGI: > 100 µM
SN12C renal
  GI50: > 100 µM
  TGI: > 100 µM

## COc1ccc(S(=O)(=O)N2CCCCC2)cc1NC(=O)c1[nH]c(C)c2c1CCCCC2=O
HCT-116 colon
  GI50: 1.32 µM
  TGI: 19.3 µM
A498 renal
  GI50: 1.08 µM
  TGI: 3.98 µM
HT29 colon
  GI50: 0.822 µM
  TGI: 21.7 µM
NCI-H522 lung
  GI50: 0.374 µM
  TGI: 7.73 µM
KM12 colon
  GI50: 4.36 µM
  TGI: > 100 µM
RXF 393 renal
  GI50: 0.818 µM
  TGI: 4.09 µM
SW-620 colon
  GI50: 8.04 µM
  TGI: > 100 µM
EKVX NSCLC
  GI50: 3.78 µM
  TGI: > 100 µM
TK-10 renal
  GI50: 0.658 µM
  TGI: 38.1 µM
SN12C renal
  GI50: 3.16 µM
  TGI: > 100 µM

## COc1cc2c(cc1OCCN1C(=O)c3cccc4cccc(c34)C1=O)N=C[C@@H]1CCCN1C2=O
HCT-116 colon
  GI50: 20.6 µM
  TGI: 14.5 µM and 45.4 µM
A498 renal
  GI50: 19.6 µM
  TGI: 16.6 µM and 42.8 µM
HT29 colon
  GI50: 14.4 µM
  TGI: 16.9 µM and 29.8 µM
NCI-H522 lung
  GI50: 1.58 µM
  TGI: 4.51 µM and 10.2 µM
KM12 colon
  GI50: 12.4 µM
  TGI: 50 µM and 24.9 µM
RXF 393 renal
  GI50: 20.9 µM
  TGI: 15 µM and 36.3 µM
SW-620 colon
  GI50: 17.2 µM
  TGI: 15.8 µM and > 100 µM
EKVX NSCLC
  GI50: 13.8 µM
  TGI: 18.3 µM and 26.7 µM
TK-10 renal
  TGI: 14.8 µM
SN12C renal
  TGI: 14.7 µM

## C=C(C)[C@@H]1CC[C@]2(C)[C@H](CC=C3[C@@H]4CC(C)(C)CC[C@]4(C(=O)OC)CC[C@]32C)[C@@]1(C)CC/C(N)=N/O
HCT-116 colon
  GI50: 1.61 µM
  TGI: 3.05 µM
A498 renal
  GI50: 2.05 µM
  TGI: 4.48 µM
HT29 colon
  GI50: 1.88 µM
  TGI: 5.11 µM
NCI-H522 lung
  GI50: 1.58 µM
  TGI: 4.12 µM
KM12 colon
  GI50: 1.68 µM
  TGI: 3.6 µM
RXF 393 renal
  GI50: 1.8 µM
  TGI: 3.67 µM
SW-620 colon
  GI50: 1.88 µM
  TGI: 4.32 µM
EKVX NSCLC
  GI50: 2.11 µM
  TGI: 6.8 µM
TK-10 renal
  GI50: 3.66 µM
  TGI: 18.6 µM
SN12C renal
  GI50: 1.66 µM
  TGI: 3.2 µM

## C/C(=C\c1ccccc1)C(O)S(=O)(=O)O (stereo not drawn)
HCT-116 colon
  TGI: > 100 µM
A498 renal
  TGI: > 100 µM
HT29 colon
  TGI: > 100 µM
NCI-H522 lung
  TGI: > 100 µM
KM12 colon
  TGI: > 100 µM
RXF 393 renal
  TGI: > 100 µM
SW-620 colon
  TGI: > 100 µM
EKVX NSCLC
  TGI: > 100 µM
TK-10 renal
  TGI: > 100 µM
SN12C renal
  TGI: > 100 µM

## C=CC1(C)/C(=N\O)C(C)(CC)C(=O)N1O (stereo not drawn)
HCT-116 colon
  TGI: > 100 µM
A498 renal
  TGI: > 100 µM
HT29 colon
  TGI: > 100 µM
NCI-H522 lung
  TGI: > 100 µM
KM12 colon
  TGI: > 100 µM
RXF 393 renal
  TGI: > 100 µM
SW-620 colon
  TGI: > 100 µM
EKVX NSCLC
  TGI: > 100 µM
TK-10 renal
  TGI: > 100 µM
SN12C renal
  TGI: > 100 µM

## O=C1c2ccccc2C(=O)c2c1c(NCCNCCO)c1cc[nH]c1c2NCCNCCO
HCT-116 colon
  GI50: 1.27 µM
  TGI: > 21.5 µM
A498 renal
  GI50: 8.09 µM
  TGI: 32.9 µM
HT29 colon
  GI50: 2.78 µM
  TGI: > 41.4 µM
NCI-H522 lung
  GI50: 2.32 µM
  TGI: > 35.8 µM
KM12 colon
  GI50: 4.34 µM
  TGI: > 39.9 µM
RXF 393 renal
  GI50: 2.59 µM
  TGI: 13.2 µM
SW-620 colon
  GI50: 3.28 µM
  TGI: 25.9 µM
EKVX NSCLC
  GI50: 4.65 µM
  TGI: 25.5 µM
TK-10 renal
  GI50: 6.04 µM
  TGI: 44.9 µM
SN12C renal
  GI50: 0.354 µM
  TGI: 2.67 µM

## CC(C)NCCCNC1=C(Cl)C(=O)c2ccccc2C1=O
HCT-116 colon
  GI50: 2.12 µM
  TGI: 5.28 µM
A498 renal
  GI50: 12.2 µM
  TGI: 25.1 µM
HT29 colon
  GI50: 2.5 µM
  TGI: 5.12 µM
NCI-H522 lung
  GI50: 8.69 µM
  TGI: 21.8 µM
KM12 colon
  GI50: 9.59 µM
  TGI: 22.3 µM
RXF 393 renal
  GI50: 14.5 µM
  TGI: 27.8 µM
SW-620 colon
  GI50: 1.74 µM
  TGI: 3.37 µM
EKVX NSCLC
  GI50: 1.4 µM
  TGI: 2.83 µM
TK-10 renal
  GI50: 22.7 µM
  TGI: 38.8 µM
SN12C renal
  GI50: 1.89 µM
  TGI: 3.93 µM

## CC(=O)[CH-]C(=O)c1ccccc1.CC(=O)[CH-]C(=O)c1ccccc1.CC(C)CCCC(C)[C@H]1CCC2[C@@H]3CCC4C[C@@H]([O-])CC[C@]4(C)C3CC[C@@]21C.CC(C)CCCC(C)[C@H]1CCC2[C@@H]3CCC4C[C@@H]([O-])CC[C@]4(C)C3CC[C@@]21C.Cl.[Ti+4] (stereo partly drawn)
HCT-116 colon
  GI50: > 25 µM
  TGI: > 25 µM
A498 renal
  GI50: > 25 µM
  TGI: > 25 µM
HT29 colon
  GI50: > 25 µM
  TGI: > 25 µM
NCI-H522 lung
  GI50: > 25 µM
  TGI: > 25 µM
KM12 colon
  GI50: > 25 µM
  TGI: > 25 µM
RXF 393 renal
  GI50: > 25 µM
  TGI: > 25 µM
SW-620 colon
  GI50: > 25 µM
  TGI: > 25 µM
EKVX NSCLC
  GI50: > 25 µM
  TGI: > 25 µM
TK-10 renal
  GI50: > 25 µM
  TGI: > 25 µM
SN12C renal
  GI50: > 25 µM
  TGI: > 25 µM
